The values below come from paper PMC7185853 (Fish & Shellfish Immunology, 2015).

This assay deals with VHSV. Description: Inhibition of in vitro VHSV infection of ZF4 cells. The conditions noted are these: for VHSV-inhibiting concentrations lower than those of the SERPINe1-derived peptide: ZF4 cells, duplicates (Fig. 3). It counts as cell-based, viral haemorrhagic septicemia virus VHSV- 07.71.

Turning to `O=C(O[C@@H]1Cc2c(O)cc(O)cc2O[C@@H]1c1cc(O)c(O)c(O)c1)c1cc(O)c(O)c(O)c1` [EGCG], the “VHSV-inhibiting concentrations lower than those of the SERPINe1-derived peptide” value is on record as about 50 fold.

`O=C(O)C(=O)c1cn(Cc2ccccc2)c2ccc(-c3ccc(OC(F)(F)F)cc3)cc12` [tiplaxtinin]: the “VHSV-inhibiting concentrations lower than those of the SERPINe1-derived peptide” value is given as about 50 fold.

For the molecule tannic acid, the “VHSV-inhibiting concentrations lower than those of the SERPINe1-derived peptide” value is reported as about 50 fold. Where the note is “68 μg per ml (∼40 μM), ZF4 cells (Fig. 3)”, the “Inhibition of VHSV infectivity in vitro” value is on record as about 95%.
